The source made the active and inactive calls. No cut-off for these calls is given here.
Key:
[1] = target: 5-hydroxytryptamine receptor 2A (Rattus norvegicus, UniProt P14842); assay: Displacement of [3H]ketanserin from 5HT2A in Wistar rat frontal cortex membranes after 1 hr by liquid scintillation spectrometry; type: cell membranes, Membrane
[2] = target: T1, 5-hydroxytryptamine receptor 2C (Homo sapiens, UniProt P28335); assay: Binding affinity to 5HT2C (unknown origin)
T1 sequence (P28335 whole entry): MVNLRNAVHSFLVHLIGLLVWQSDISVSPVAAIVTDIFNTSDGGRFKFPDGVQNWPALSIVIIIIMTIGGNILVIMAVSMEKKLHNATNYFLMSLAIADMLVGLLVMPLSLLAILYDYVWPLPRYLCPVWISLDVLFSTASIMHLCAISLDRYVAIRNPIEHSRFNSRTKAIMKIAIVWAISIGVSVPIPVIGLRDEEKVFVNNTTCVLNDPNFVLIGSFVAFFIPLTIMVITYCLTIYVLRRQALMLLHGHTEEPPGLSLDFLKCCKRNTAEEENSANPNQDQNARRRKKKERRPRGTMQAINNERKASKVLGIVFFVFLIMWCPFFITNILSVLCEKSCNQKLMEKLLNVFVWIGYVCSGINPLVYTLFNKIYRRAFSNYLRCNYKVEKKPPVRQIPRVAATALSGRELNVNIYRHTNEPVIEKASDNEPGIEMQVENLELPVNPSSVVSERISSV

[3] = tested on: Liver microsome; assay: Intrinsic clearance in human liver microsomes at 2.5 uM; type: ADME
[4] = target: Sodium-dependent serotonin transporter (Homo sapiens, UniProt P31645); assay: Binding affinity to SERT (unknown origin)
[5] = target: T2, 5-hydroxytryptamine receptor 2C (Rattus norvegicus, UniProt P08909); assay: Displacement of [3H]mesulergine from 5HT2C in Sprague-Dawley rat whole brain membranes after 1 hr by liquid scintillation spectrometry; type: tissue-based, Membrane
T2 sequence (P08909 whole entry): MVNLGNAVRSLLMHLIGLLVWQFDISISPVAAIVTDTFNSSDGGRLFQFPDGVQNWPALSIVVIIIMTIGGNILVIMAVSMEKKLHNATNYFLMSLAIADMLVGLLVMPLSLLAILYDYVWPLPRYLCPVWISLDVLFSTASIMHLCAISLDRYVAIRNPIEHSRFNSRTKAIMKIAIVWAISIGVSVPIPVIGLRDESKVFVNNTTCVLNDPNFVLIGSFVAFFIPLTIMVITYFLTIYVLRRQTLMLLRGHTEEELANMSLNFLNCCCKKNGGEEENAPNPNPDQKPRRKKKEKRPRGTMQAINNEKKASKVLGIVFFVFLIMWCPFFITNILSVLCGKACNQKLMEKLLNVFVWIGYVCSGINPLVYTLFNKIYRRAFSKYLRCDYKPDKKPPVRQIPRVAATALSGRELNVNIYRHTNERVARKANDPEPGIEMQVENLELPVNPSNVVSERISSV

[6] = target: T3, 5-hydroxytryptamine receptor 2A (Homo sapiens, UniProt P28223); assay: Binding affinity to 5HT2A (unknown origin)
[7] = Intrinsic clearance in mouse liver microsomes at 2.5 uM; type: ADME
[8] = target: Sodium-dependent serotonin transporter (Rattus norvegicus, UniProt P31652); assay: Displacement of [3H]citalopram from SERT in Sprague-Dawley rat whole brain membranes after 1 hr by liquid scintillation spectrometry; type: tissue-based, Membrane
[9] = target: Sodium-dependent serotonin transporter (Rattus norvegicus) (UniProt P31652); assay: Displacement of [3H]citalopram from SERT in Sprague-Dawley rat whole brain membranes at 1 uM after 1 hr by liquid scintillation spectrometry; type: tissue-based; conditions: Membrane
[10] = tested on: Mus musculus; assay: Inhibition of mCPP-induced hypomotility in NMRI mouse assessed as reductiion in vertical hypoactivity at 40 to 80 mg/kg, ip up to 60 mins; type: functional, organism-based
[11] = target: 5-hydroxytryptamine receptor 1A (Homo sapiens) (UniProt P08908); assay: Displacement of [3H]-8-OH-DPAT from human 5HT1A receptor at 1 uM
[12] = target: T4, 5-hydroxytryptamine receptor 2C (Homo sapiens) (UniProt P28335); assay: Antagonist activity at human 5-HT2C receptor expressed in CHO-K1 cells assessed as inhibition of 5HT-induced Ca2+ release at 10 uM by fluorometry assay; type: functional, cell-based
T4 sequence (whole entry): T1 sequence (P28335 whole entry)

[13] = tested on: Mus musculus; assay: Induction of motor depression in C57BL/6J mouse assessed as total duration of immobility was measured over a period of 6 mins at 25 to 100 mg/kg, ip by tail suspension test; type: organism-based; conditions: in vivo, 0.1 h
[14] = target: 5-hydroxytryptamine receptor 2B (Homo sapiens) (UniProt P41595); assay: Displacement of [3H]-LSD from human 5HT2B receptor at 1 uM
[15] = tested on: Mus musculus; assay: Effect on spontaneous rearing behavior in NMRI mouse at 5 to 80 mg/kg, ip; type: ADME, organism-based; conditions: in vivo
[16] = target: T3, 5-hydroxytryptamine receptor 2A; assay: Antagonist activity at human 5-HT2A receptor expressed in CHO-K1 cells assessed as inhibition of 5HT-induced Ca2+ release at 10 uM by fluorometry assay; type: functional, cell-based
[17] = tested on: Mus musculus; assay: Inhibition of hypomotility in NMRI mouse assessed as reduction in rearing at 20 mg/kg, ip in presence of 0.1 to 1 mg/kg, sc selective 5-HT2C antagonist SB-242084; type: functional, organism-based
[18] = tested on: Mus musculus; assay: Inhibition of mCPP-induced hypomotility in ip dosed NMRI mouse assessed as rearing count up to 60 mins; type: functional; conditions: 1 h
[19] = Efflux ratio of the compound from apical to basolateral side to basolateral to apical side in human vinblastine-treated Caco2 cells; type: ADME, cell-based; conditions: caco-2
[20] = Apparent permeability of the compound from apical to basolateral side in human vinblastine-treated Caco2 cells; type: ADME, cell-based; conditions: caco-2
[21] = tested on: Mus musculus; assay: Potentiation of mCPP-induced hypomotility in NMRI mouse at 20 to 40 mg/kg, ip up to 60 mins; type: ADME, organism-based; conditions: in vivo, 1 h
[22] = tested on: Mus musculus; assay: Induction of motor depression in C57BL/6J mouse assessed as total duration of immobility was measured over a period of 6 mins at 20 to 80 mg/kg, ip by tail suspension test; type: organism-based; conditions: in vivo, 0.1 h
[23] = tested on: Mus musculus; assay: Inhibition of mCPP-induced hypomotility in NMRI mouse assessed as reductiion in vertical hypoactivity at 20 to 40 mg/kg, ip up to 60 mins; type: functional, organism-based

5-hydroxytryptamine receptor 2A (Rattus norvegicus, UniProt P14842), sequence (P14842 whole entry): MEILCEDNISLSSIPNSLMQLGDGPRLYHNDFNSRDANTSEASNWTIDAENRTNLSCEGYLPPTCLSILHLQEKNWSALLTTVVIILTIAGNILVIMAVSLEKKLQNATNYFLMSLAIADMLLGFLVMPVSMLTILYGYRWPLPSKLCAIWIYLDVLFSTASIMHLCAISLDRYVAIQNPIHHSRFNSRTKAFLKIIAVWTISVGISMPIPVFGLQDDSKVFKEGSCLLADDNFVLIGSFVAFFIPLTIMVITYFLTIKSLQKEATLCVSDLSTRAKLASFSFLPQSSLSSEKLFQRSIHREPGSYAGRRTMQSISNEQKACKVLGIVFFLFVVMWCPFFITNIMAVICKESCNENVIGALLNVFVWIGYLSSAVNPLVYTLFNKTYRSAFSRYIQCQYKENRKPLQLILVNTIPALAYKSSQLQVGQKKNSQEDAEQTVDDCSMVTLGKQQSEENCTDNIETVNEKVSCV
T3 sequence (P28223 whole entry): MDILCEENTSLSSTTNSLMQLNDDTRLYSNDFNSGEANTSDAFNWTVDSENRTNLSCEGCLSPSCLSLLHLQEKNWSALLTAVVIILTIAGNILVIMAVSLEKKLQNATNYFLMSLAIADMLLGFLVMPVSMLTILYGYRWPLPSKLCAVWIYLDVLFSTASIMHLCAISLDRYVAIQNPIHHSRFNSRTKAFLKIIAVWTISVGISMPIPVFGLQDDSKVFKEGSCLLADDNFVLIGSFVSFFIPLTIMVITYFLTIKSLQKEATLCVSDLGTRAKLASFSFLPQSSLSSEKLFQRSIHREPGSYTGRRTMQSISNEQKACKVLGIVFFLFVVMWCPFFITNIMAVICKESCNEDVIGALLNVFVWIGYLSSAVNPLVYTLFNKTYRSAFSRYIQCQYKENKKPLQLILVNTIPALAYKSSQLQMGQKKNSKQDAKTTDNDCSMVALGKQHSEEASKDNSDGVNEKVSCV
Sodium-dependent serotonin transporter (Rattus norvegicus, UniProt P31652), sequence (P31652 whole entry): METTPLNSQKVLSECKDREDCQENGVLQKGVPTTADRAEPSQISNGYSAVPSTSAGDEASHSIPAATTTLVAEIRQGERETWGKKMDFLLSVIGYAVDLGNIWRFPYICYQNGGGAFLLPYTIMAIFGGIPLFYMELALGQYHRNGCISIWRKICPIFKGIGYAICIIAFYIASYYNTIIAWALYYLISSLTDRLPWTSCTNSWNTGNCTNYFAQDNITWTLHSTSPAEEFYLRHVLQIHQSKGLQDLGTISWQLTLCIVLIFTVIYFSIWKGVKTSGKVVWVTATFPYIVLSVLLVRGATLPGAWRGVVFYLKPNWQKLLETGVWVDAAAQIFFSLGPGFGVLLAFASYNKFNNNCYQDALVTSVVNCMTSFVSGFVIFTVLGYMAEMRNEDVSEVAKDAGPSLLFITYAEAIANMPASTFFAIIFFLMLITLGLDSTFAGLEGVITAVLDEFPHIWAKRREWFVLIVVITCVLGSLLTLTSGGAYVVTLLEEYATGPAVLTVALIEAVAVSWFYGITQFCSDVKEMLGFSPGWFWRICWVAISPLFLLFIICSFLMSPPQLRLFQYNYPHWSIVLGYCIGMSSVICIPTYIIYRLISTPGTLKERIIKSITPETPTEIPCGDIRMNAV
5-hydroxytryptamine receptor 1A (Homo sapiens), sequence (P08908 whole entry, looked up): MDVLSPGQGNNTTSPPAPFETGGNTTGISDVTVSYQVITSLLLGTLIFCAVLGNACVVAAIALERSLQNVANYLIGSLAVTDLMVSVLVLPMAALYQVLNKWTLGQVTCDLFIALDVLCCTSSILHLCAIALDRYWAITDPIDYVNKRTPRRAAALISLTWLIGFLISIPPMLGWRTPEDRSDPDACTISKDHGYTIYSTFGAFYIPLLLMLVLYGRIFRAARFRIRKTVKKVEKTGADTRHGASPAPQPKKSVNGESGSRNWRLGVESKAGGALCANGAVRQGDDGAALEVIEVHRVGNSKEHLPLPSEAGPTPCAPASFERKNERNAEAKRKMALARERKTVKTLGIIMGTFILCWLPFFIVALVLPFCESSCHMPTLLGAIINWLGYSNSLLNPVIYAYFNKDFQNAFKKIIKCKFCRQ
5-hydroxytryptamine receptor 2B (Homo sapiens), sequence (P41595 whole entry): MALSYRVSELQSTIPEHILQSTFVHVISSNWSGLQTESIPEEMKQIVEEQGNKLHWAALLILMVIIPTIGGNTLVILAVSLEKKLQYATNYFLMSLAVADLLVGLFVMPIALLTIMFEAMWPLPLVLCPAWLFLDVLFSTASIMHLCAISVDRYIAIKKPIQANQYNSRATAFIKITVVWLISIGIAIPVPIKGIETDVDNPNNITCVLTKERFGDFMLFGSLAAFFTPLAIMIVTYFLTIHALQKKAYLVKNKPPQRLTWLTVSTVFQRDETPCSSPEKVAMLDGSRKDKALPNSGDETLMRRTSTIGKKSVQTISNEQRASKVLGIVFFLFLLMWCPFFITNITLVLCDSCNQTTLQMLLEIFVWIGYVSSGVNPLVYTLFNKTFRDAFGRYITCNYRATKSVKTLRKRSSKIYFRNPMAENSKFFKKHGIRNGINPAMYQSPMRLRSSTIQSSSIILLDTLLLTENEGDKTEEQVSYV
Sodium-dependent serotonin transporter (Homo sapiens, UniProt P31645), sequence (P31645 whole entry): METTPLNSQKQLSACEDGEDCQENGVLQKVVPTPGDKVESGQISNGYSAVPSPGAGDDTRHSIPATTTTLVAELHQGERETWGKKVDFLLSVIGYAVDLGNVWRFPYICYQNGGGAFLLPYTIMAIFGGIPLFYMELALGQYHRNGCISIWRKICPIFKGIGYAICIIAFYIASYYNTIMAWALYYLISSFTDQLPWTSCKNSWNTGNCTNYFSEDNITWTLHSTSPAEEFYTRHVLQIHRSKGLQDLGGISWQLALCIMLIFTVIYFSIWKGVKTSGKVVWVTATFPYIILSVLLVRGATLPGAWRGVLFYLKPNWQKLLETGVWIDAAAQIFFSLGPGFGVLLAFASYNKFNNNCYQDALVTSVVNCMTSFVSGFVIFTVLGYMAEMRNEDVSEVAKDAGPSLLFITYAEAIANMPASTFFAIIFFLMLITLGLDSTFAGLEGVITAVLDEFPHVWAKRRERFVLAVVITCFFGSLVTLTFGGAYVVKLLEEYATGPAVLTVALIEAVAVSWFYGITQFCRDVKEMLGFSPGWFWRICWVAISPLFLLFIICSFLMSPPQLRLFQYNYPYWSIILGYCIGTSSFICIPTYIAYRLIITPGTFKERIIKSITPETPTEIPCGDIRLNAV
Sodium-dependent serotonin transporter (Rattus norvegicus), sequence (P31652 whole entry): as the sequence (P31652 whole entry) above

| SMILES | Ki [1] [nM] | CLH [3] [mL/min/g] | Ki [5] [nM] | CLH [7] [mL/min/g] | Ki [8] [nM] | further results |
| --- | --- | --- | --- | --- | --- | --- |
| CN(C)CCN(Cc1ccccc1)S(=O)(=O)c1ccc(I)cc1 | 3 | 1.36 | 11.6 | 14.19 | 20.4 | Ki [2]: 8 nM; Ki [4]: 30.4 nM; Ki [6]: 1.8 nM |
| Cc1ccc(NC(=O)Nc2ccc(S(=O)(=O)N(CCN(C)C)Cc3ccccc3)cc2)cc1Cl | – | – | 4.5 | – | 209 | – |
| Cc1cc2c(cc1Cl)N(C(=O)Nc1ccc(Oc3cccnc3C)nc1)CC2 [SB-242084] | 274 | – | 0.16 | – | 1770 | – |
| COc1ccc(NC(=O)Nc2ccc(S(=O)(=O)N(CCN(C)C)Cc3ccccc3)cc2)cc1Cl | – | – | 16.3 | – | 93 | – |
| Cc1cc2c(cc1Cl)N(C(=O)Nc1ccc(S(=O)(=O)N(CCN(C)C)Cc3ccccc3)cc1)CC2 | – | – | 43.5 | – | – | inhibition [9]: 11% |
| CN(C)CCN(Cc1ccccc1)S(=O)(=O)c1ccc(NC(=O)N2CCN(c3cccc(Cl)c3)CC2)cc1 | – | – | 95.6 | – | 36.8 | – |
| CN(C)CCN(Cc1ccccc1)S(=O)(=O)c1ccc(N2CCN(c3cccc(Cl)c3)CC2)cc1 | 9.9 | 1.43 | 8.1 | 1.57 | 29.7 | Activity [10]: inactive; inhibition [11]: -7%; inhibition [12]: Active; Activity [13]: Toxic; inhibition [14]: 82%; Activity [15]: Toxic; inhibition [16]: Active; Activity [17]: inactive |
| COc1ccc(NC(=O)Nc2ccc(OC(CCN(C)C)c3ccccc3)cc2)cc1Cl (stereo unspecified) | 233 | 0.68 | – | 1.25 | – | ED50 [18]: 13.5 mg/kg; inhibition [11]: -4%; Ratio [19]: 2.2; inhibition [14]: 87% |
| Cc1cc2c(cc1Cl)N(C(=O)Nc1ccc(OC(CCN(C)C)c3ccccc3)cc1)CC2 (stereo unspecified) | 138 | 0.06 | 0.6 | 0.9 | 65.5 | ED50 [18]: 17.9 mg/kg |
| CN(C)CCN(Cc1ccccc1)S(=O)(=O)c1cccc(N2CCN(c3cccc(Cl)c3)CC2)c1 | – | – | 6.1 | – | 509 | – |
| CN(C)CCN(Cc1ccccc1)S(=O)(=O)c1ccc(NC(=O)Nc2ccc3c(ccn3C)c2)cc1 | 58.4 | 3.94 | 14.5 | 1.07 | 26.2 | Papp A→B [20]: 8.6 ×10⁻⁶ cm/s; Activity [21]: Toxic; inhibition [11]: -4%; Ratio [19]: 2.2; Activity [22]: Toxic; inhibition [12]: Active; inhibition [14]: 86%; Activity [23]: inactive; inhibition [16]: Active |
| CN(C)CCC(Oc1ccc(NC(=O)Nc2ccc3c(ccn3C)c2)cc1)c1ccccc1 (stereo unspecified) | 239 | 2.66 | – | 3.25 | – | Ratio [19]: 5.3 |
| CCn1ccc2cc(NC(=O)Nc3ccc(S(=O)(=O)N(CCN(C)C)Cc4ccccc4)cc3)ccc21 | – | – | 26.5 | – | 65.6 | – |
| CN(C)CCN(Cc1ccccc1)S(=O)(=O)c1ccc(C(=O)N2CCN(c3cccc(Cl)c3)CC2)cc1 | – | – | 477 | – | 110 | – |
| Clc1cccc(N2CCNCC2)c1 [CHLOROPHENYLPIPERAZINE] | – | – | – | – | – | Ki [4]: 271 nM |
| Cc1ccc(NC(=O)Nc2ccc(OC(CCN(C)C)c3ccccc3)cc2)cc1Cl (stereo unspecified) | – | – | 3 | – | – | – |
